Drawing on patent US11919902B2, “Aryl-bipyridine amine derivatives as phosphatidylinositol phosphate kinase inhibitors” (HiberCell, Inc., priority 2017, dated 2024), this text covers IC50 for eleven compounds.

pIC50: −log10 of the molar value. Some results are limits rather than exact numbers.

For assay [1], the target named is T1, PIP4K2A (full length protein, SignalChem) (Homo sapiens, UniProt P48426).
T1 construct: 4 nM PIP4K2A (full length protein, SignalChem); purchased SignalChem
T1 sequence (P48426 1-406): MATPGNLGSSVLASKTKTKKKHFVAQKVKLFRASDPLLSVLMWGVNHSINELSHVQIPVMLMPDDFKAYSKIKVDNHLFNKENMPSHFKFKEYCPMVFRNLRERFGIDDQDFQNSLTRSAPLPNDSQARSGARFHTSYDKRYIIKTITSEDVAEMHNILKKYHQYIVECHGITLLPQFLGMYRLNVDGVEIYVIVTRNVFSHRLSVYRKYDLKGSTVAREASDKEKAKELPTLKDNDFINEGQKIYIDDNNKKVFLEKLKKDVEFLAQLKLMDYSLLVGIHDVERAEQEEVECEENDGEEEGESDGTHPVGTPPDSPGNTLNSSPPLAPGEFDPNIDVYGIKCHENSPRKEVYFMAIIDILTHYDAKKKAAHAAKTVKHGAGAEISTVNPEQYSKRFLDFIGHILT
Kind of assay: Kinase Assay PIP4K2 A (Sprint); ADP-Glo biochemical assay. The conditions noted are these: Table 2; compounds listed under IC50 range headings. The essentials:
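ADP-Glo luminescence detected ADP after a 1 h RT reaction started with 60 μM ATP solution. Before that, full-length PIP4K2A (4 nM in mix) with 100 μM PI(5)P diC8 was pre-incubated 15 min with compounds in MOPS buffer pH 7.2, 25 mM MgCl2, 0.005% Tween 20. IC50 derived from % inhibition relative to DMSO over 10 three-fold concentrations.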

For the next assay, the target named is T2, GST tagged PIP4KtypeIIB (Homo sapiens, UniProt P78356).
T2 construct: made in house; host or cells: E. coli
T2 sequence (P78356 1-416): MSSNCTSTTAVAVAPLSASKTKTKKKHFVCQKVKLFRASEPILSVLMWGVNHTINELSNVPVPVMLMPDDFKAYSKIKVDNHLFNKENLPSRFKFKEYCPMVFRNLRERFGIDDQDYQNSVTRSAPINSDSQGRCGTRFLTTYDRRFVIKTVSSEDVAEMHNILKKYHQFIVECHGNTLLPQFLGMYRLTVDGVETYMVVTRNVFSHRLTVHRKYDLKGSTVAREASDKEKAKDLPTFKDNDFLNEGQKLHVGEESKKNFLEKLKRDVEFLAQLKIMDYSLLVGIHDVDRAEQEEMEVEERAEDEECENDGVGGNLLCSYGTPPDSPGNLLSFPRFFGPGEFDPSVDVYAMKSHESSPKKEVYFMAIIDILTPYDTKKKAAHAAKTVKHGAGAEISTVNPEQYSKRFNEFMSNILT
Kind of assay: Trans-FI P kinase assay PIP4K2B (PIP4KtypeIIB inhibition assay). To be noted: Table 4; compounds listed under IC50 range headings; 100 uM GTP, 5 nM PIP4KIIB; read-out: Trans-FI P kinase assays: PIP4K2B IC50. The class given is biochemical. The method, boiled down: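 Transcreener FI fluorescence, converted to GDP by calibration, tracked product from 5 nM E. coli-expressed GST-PIP4KIIB acting on 80 uM PI5P (DOPE carrier) with 100 uM GTP. Compound (top 4.8 uM final, 5% DMSO) was preincubated 1 h at 27 C before the 2 h reaction; IC50 fitted from residual activity.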

In the next assay the target is T3, GST tagged PIP4KtypeIIA (Homo sapiens, UniProt P48426).
T3 construct: made in house; host or cells: E. coli
T3 sequence (P48426 1-406): T1 sequence (P48426 1-406)
Kind of assay: ADP-glo kinase assay PIP4K 2A (PIP4KtypeIIA inhibition assay). Type of assay: biochemical. The conditions noted are these: Table 3; compounds listed under IC50 range headings; 10 uM ATP, 0.5 nM PIP4KIIA. The method, boiled down:
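Read-out was ADP-Glo luminescence converted to μM ADP, with IC50 plotted as % of no-inhibitor activity against log concentration. Reactions contained 10 μM ATP, 80 μM PI5P with DOPE carrier, and 0.5 nM GST-tagged PIP4KIIA (E. coli-expressed) in pH 7.3 HEPES/MgCl2 buffer with 5% DMSO. Enzyme and compound (≤4.8 μM) were preincubated 1 h at 27 °C before the 1 h reaction.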

For `Cn1ncc2c(-c3cncc(-c4ccc(N5CCCC5=O)cc4)c3)c[nH]c(=O)c21` [Example 158, 1-methyl-4-(5-(4-(2-oxopyrrolidin-1-yl)phenyl)pyridin-3-yl)-1,6-dihydro-7H-pyrazolo[3,4-c]pyridin-7-one], the results for the negative-log IC50 (pIC50) (in assay [1]; at GST tagged PIP4KtypeIIB; against GST tagged PIP4KtypeIIA) were 7.00 to 8.30, 6.00 to 7.00 and 6.00 to 7.00, respectively.

Regarding `Cn1cc2c(-c3cncc(-c4ccc(N5CCCC5=O)cc4)c3)c[nH]c(=O)c2n1` [Example 159, 2-methyl-4-(5-(4-(2-oxopyrrolidin-1-yl)phenyl)pyridin-3-yl)-2,6-dihydro-7H-pyrazolo[3,4-c]pyridin-7-one], the values for the pIC50 (in assay [1]; at GST tagged PIP4KtypeIIB; on GST tagged PIP4KtypeIIA) were 7.00 to 8.30, 6.00 to 7.00 and 6.00 to 7.00, respectively.

For the compound `Cn1ncc2c(-c3cncc(-c4ccc(N5CCCC5=O)cc4)c3)cn(CC#N)c(=O)c21` [Example 160, 2-(1-methyl-7-oxo-4-(5-(4-(2-oxopyrrolidin-1-yl)phenyl)pyridin-3-yl)-1,7-dihydro-6H-pyrazolo[3,4-c]pyridin-6-yl)acetonitrile], the pIC50 (in assay [1]; at GST tagged PIP4KtypeIIB; on GST tagged PIP4KtypeIIA) was 6.00 to 7.00 each time.

For `CC(C)OC(=O)c1cc2c(-c3cncc(-c4ccc(N5CCCC5=O)cc4)c3)ccnc2[nH]1` [Example 161, isopropyl 4-(5-(4-(2-oxopyrrolidin-1-yl)phenyl)pyridin-3-yl)-1H-pyrrolo[2,3-b]pyridine-2-carboxylate], the pIC50 in assay [1] is 7.00 to 8.30; on GST tagged PIP4KtypeIIB, 7.00 to 8.00; on GST tagged PIP4KtypeIIA, 6.00 to 7.00.

As for `CCOC(=O)c1cc2c(-c3cncc(-c4ccc(N5CCCC5=O)cc4)c3)ccnc2[nH]1` [Example 162, ethyl 4-(5-(4-(2-oxopyrrolidin-1-yl)phenyl)pyridin-3-yl)-1H-pyrrolo[2,3-b]pyridine-2-carboxylate], the pIC50 in assay [1] was 7.00 to 8.30; at GST tagged PIP4KtypeIIB, 7.00 to 8.00; at GST tagged PIP4KtypeIIA it was 6.00 to 7.00.

In the case of `O=C(O)c1cc2c(-c3cncc(-c4ccc(N5CCCC5=O)cc4)c3)ccnc2[nH]1` [Example 163, 4-(5-(4-(2-oxopyrrolidin-1-yl)phenyl)pyridin-3-yl)-1H-pyrrolo[2,3-b]pyridine-2-carboxylic acid], the pIC50 in assay [1] is 7.00 to 8.30; at GST tagged PIP4KtypeIIB, 7.00 to 8.00; at GST tagged PIP4KtypeIIA it was 6.00 to 7.00.

As for `Cc1ncc(-c2ccncc2)cc1-c1ccc(N2CCCC2=O)cc1` [Example 164, 1-(4-(6-methyl-3,4′-bipyridin-5-yl)phenyl)pyrrolidin-2-one], the pIC50 in assay [1] was 5.30 to 5.60; at GST tagged PIP4KtypeIIB, 5.30 to 5.60; against GST tagged PIP4KtypeIIA it was under 5.30.

On to `COC(=O)c1cc2c(-c3cncc(-c4ccc(N5CCCC5=O)cc4)c3)ccnc2o1` [Example 165, methyl 4-(5-(4-(2-oxopyrrolidin-1-yl)phenyl)pyridin-3-yl)furo[2,3-b]pyridine-2-carboxylate], for which the figures for the negative-log IC50 (pIC50) (in assay [1]; on GST tagged PIP4KtypeIIB; against GST tagged PIP4KtypeIIA) were 7.00 to 8.30, 7.00 to 8.00 and 7.00 to 8.00, respectively.

For the compound `O=C(NC1COC1)c1cc2c(-c3cncc(-c4ccc(N5CCCC5=O)cc4)c3)ccnc2o1` [Example 166, N-(oxetan-3-yl)-4-(5-(4-(2-oxopyrrolidin-1-yl)phenyl)pyridin-3-yl)furo[2,3-b]pyridine-2-carboxamide], the negative logarithm of the IC50 (pIC50) in assay [1] was 7.00 to 8.30; at GST tagged PIP4KtypeIIB, 6.00 to 7.00; at GST tagged PIP4KtypeIIA, 7.00 to 8.00.

Turning to `CC(C)OC(=O)c1cc2c(-c3cncc(-c4ccc(N5CCCC5=O)cc4)c3)ccnc2o1` [Example 167, isopropyl 4-(5-(4-(2-oxopyrrolidin-1-yl)phenyl)pyridin-3-yl)furo[2,3-b]pyridine-2-carboxylate], the values for the pIC50 (in assay [1]; at GST tagged PIP4KtypeIIB; against GST tagged PIP4KtypeIIA) were 7.00 to 8.30, 7.00 to 8.00 and 7.00 to 8.00, respectively.

With `Cc1cc(N2CCCC2=O)ccc1-c1cncc(-c2cn(C)c3ncc(C(C)(C)O)cc23)c1` [Example 168, 1-(4-(5-(5-(2-hydroxypropan-2-yl)-1-methyl-1H-pyrrolo[2,3-b]pyridin-3-yl)pyridin-3-yl)-3-methylphenyl)pyrrolidin-2-one], the negative logarithm of the IC50 (pIC50) in assay [1] was 6.00 to 7.00; at GST tagged PIP4KtypeIIB it was 5.30 to 5.60; against GST tagged PIP4KtypeIIA it was 5.30 to 5.60.
